# From ChEMBL document CHEMBL1201862, “PubChem BioAssay data set” (2004)
#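 In this assay, cells in 96-well plates receive the compound at five concentrations for 48 hours. Endpoints are linearly interpolated between the surrounding concentrations. The concentration for 50% growth inhibition is given as GI50.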 Activity calls are given as the source filed them. Cut-off read from the data, not from the text of the source: active = GI50 up to about 1.1 µM and inactive = higher.
# How the values were obtained:
# Assay in all cases: inhibition of tumour cell growth, NCI panel, 48 h
# [1] = test system: OVCAR-3
# [2] = test system: NCI-H226
# [3] = test system: U-251
# [4] = test system: KM-20L2
# [5] = test system: HT-29
# [6] = test system: UACC-62
# [7] = test system: LXFL 529
# [8] = test system: NCI-H460
# [9] = test system: SF-268
# [10] = test system: SNB-19
# [11] = test system: K562
# [12] = test system: UACC-257
# [13] = test system: LOX IMVI
# [14] = test system: TK-10
# [15] = test system: HL-60
# [16] = test system: RPMI-8226
# [17] = test system: SK-MEL-2
# [18] = test system: T47D
# [19] = test system: BT-549
Compound,GI50 [1],GI50 [2],GI50 [3],GI50 [4],GI50 [5],GI50 [6],GI50 [7],GI50 [8],GI50 [9],GI50 [10],GI50 [11],GI50 [12],GI50 [13],GI50 [14],GI50 [15],GI50 [16],GI50 [17],GI50 [18],GI50 [19]
CCCCCCCCCCCCCCC1OC(=O)c2ccccc21 (configuration not stated),79.8 µM (inactive),53.3 µM (inactive),> 100 µM (inactive),42.9 µM (inactive),35.8 µM (inactive),> 100 µM (inactive),77.1 µM (inactive),60.8 µM (inactive),> 100 µM (inactive),> 100 µM (inactive),30.6 µM (inactive),52.7 µM (inactive),86.1 µM (inactive),> 100 µM (inactive),15.6 µM (inactive),32.2 µM (inactive),–,–,–
O=C1CC2C=CC1C2CO (configuration not stated),> 100 µM (inactive),> 100 µM (inactive),> 100 µM (inactive),> 100 µM (inactive),> 100 µM (inactive),> 100 µM (inactive),> 100 µM (inactive),> 100 µM (inactive),> 100 µM (inactive),> 100 µM (inactive),–,> 100 µM (inactive),> 100 µM (inactive),> 100 µM (inactive),> 100 µM (inactive),> 100 µM (inactive),–,–,–
CC1=C(C)CC2(SC1)C(=O)c1ccccc1C2=O,–,> 100 µM (inactive),> 100 µM (inactive),> 100 µM (inactive),> 100 µM (inactive),> 100 µM (inactive),> 100 µM (inactive),> 100 µM (inactive),> 100 µM (inactive),> 100 µM (inactive),> 100 µM (inactive),> 100 µM (inactive),> 100 µM (inactive),> 100 µM (inactive),> 100 µM (inactive),> 100 µM (inactive),> 100 µM (inactive),–,–
O=C1/C(=C\c2cccc(Oc3ccccc3)c2)SC(c2ccccc2)N1c1ccccc1Cl (configuration not stated),23.7 µM (inactive),26.2 µM (inactive),16.4 µM (inactive),–,19.7 µM (inactive),25.5 µM (inactive),–,29.6 µM (inactive),33 µM (inactive),24.4 µM (inactive),23 µM (inactive),24.5 µM (inactive),22.2 µM (inactive),34.8 µM (inactive),30.2 µM (inactive),13 µM (inactive),27.9 µM (inactive),27.7 µM (inactive),21.3 µM (inactive)
C[C@]12CC[C@@H]3c4ccc(OC(=O)c5ccccc5)cc4CC[C@H]3[C@@H]1CCC2OC(=O)c1cccc2c(=O)c3ccccc3[nH]c12 (some centres not stated),26.1 µM (inactive),17.9 µM (inactive),15.7 µM (inactive),–,7.21 µM (inactive),13.3 µM (inactive),–,17.4 µM (inactive),22.8 µM (inactive),27.4 µM (inactive),60 µM (inactive),20.3 µM (inactive),16.3 µM (inactive),19.1 µM (inactive),18.8 µM (inactive),29.9 µM (inactive),14.1 µM (inactive),26.4 µM (inactive),18.2 µM (inactive)
COc1ccc(-c2ccccc2)c2[nH]c3c(c12)CCNC3=O,> 100 µM (inactive),> 100 µM (inactive),> 100 µM (inactive),> 100 µM (inactive),> 100 µM (inactive),> 100 µM (inactive),> 100 µM (inactive),> 100 µM (inactive),> 100 µM (inactive),> 100 µM (inactive),> 100 µM (inactive),> 100 µM (inactive),> 100 µM (inactive),> 100 µM (inactive),> 100 µM (inactive),> 100 µM (inactive),–,–,–
Nc1ncnc2nc(N3CCN(CCO)CC3)[nH]c12,> 100 µM (inactive),> 100 µM (inactive),> 100 µM (inactive),–,> 100 µM (inactive),> 100 µM (inactive),–,> 100 µM (inactive),> 100 µM (inactive),> 100 µM (inactive),> 100 µM (inactive),> 100 µM (inactive),> 100 µM (inactive),> 100 µM (inactive),> 100 µM (inactive),> 100 µM (inactive),> 100 µM (inactive),> 100 µM (inactive),> 100 µM (inactive)
COc1nc2c(c(=O)n1C)NC(C(O)C(O)CO)C=N2 (configuration not stated),> 10 µM (inactive),> 10 µM (inactive),> 10 µM (inactive),–,> 10 µM (inactive),> 10 µM (inactive),–,> 10 µM (inactive),> 10 µM (inactive),> 10 µM (inactive),> 10 µM (inactive),> 10 µM (inactive),> 10 µM (inactive),> 10 µM (inactive),> 10 µM (inactive),> 10 µM (inactive),> 10 µM (inactive),> 10 µM (inactive),> 10 µM (inactive)
Cc1coc2c1C(=O)C(=O)c1c-2ccc2c1CCCC2(C)C [TANSHINONE IIA],0.303 µM (active),2.29 µM (inactive),2.51 µM (inactive),–,10.5 µM (inactive),1.63 µM (inactive),–,1.17 µM (inactive),3.53 µM (inactive),2.52 µM (inactive),0.875 µM (active),0.771 µM (active),0.342 µM (active),21.6 µM (inactive),1.07 µM (active),1.94 µM (inactive),2.28 µM (inactive),2.96 µM (inactive),2.1 µM (inactive)
COc1ccc(/C=N/n2c(-c3ccccc3)n[nH]c2=O)c(OC)c1,79.6 µM (inactive),51.1 µM (inactive),40.6 µM (inactive),–,26.6 µM (inactive),43.9 µM (inactive),–,51.1 µM (inactive),22.3 µM (inactive),1.13 µM (inactive),> 100 µM (inactive),> 100 µM (inactive),47.4 µM (inactive),27 µM (inactive),> 100 µM (inactive),> 100 µM (inactive),48.2 µM (inactive),50 µM (inactive),4.41 µM (inactive)
COC(=O)C1=C(OC(=O)/C(=C/c2ccccc2)c2ccccc2)C(C(=O)OC)[C@@]2(O)[C@@H](C(=O)OC)[C@H](C)C[C@@H]1[C@@H]2C(=O)OC (some centres not stated),> 100 µM (inactive),> 100 µM (inactive),> 100 µM (inactive),–,> 100 µM (inactive),> 100 µM (inactive),–,> 100 µM (inactive),> 100 µM (inactive),> 100 µM (inactive),6.11 µM (inactive),> 100 µM (inactive),> 100 µM (inactive),> 100 µM (inactive),> 100 µM (inactive),2.67 µM (inactive),> 100 µM (inactive),> 100 µM (inactive),> 100 µM (inactive)
NC(=O)/C=C/C(=O)O,–,> 5000 µM (inactive),> 5000 µM (inactive),–,> 5000 µM (inactive),> 5000 µM (inactive),> 5000 µM (inactive),> 5000 µM (inactive),> 5000 µM (inactive),–,> 5000 µM (inactive),> 5000 µM (inactive),> 5000 µM (inactive),> 5000 µM (inactive),> 5000 µM (inactive),> 5000 µM (inactive),> 5000 µM (inactive),–,–
COc1ccc(NC(=O)CSc2nnc(-c3ccc(NC(C)=O)cc3)o2)cc1,17.8 µM (inactive),24.3 µM (inactive),15.7 µM (inactive),19.5 µM (inactive),11.1 µM (inactive),16.5 µM (inactive),13.6 µM (inactive),15.5 µM (inactive),15.8 µM (inactive),–,21.4 µM (inactive),21.5 µM (inactive),10.9 µM (inactive),21.7 µM (inactive),21.9 µM (inactive),–,19.1 µM (inactive),–,–
COc1cccc(/C=N/NC(N)=O)c1O,> 100 µM (inactive),> 100 µM (inactive),> 100 µM (inactive),> 100 µM (inactive),> 100 µM (inactive),> 100 µM (inactive),–,> 100 µM (inactive),> 100 µM (inactive),> 100 µM (inactive),> 100 µM (inactive),> 100 µM (inactive),> 100 µM (inactive),> 100 µM (inactive),–,> 100 µM (inactive),> 100 µM (inactive),–,–
O=C(c1cc(Br)ccc1O)c1cc(Br)ccc1O,15.7 µM (inactive),20 µM (inactive),15.5 µM (inactive),–,17.7 µM (inactive),13.1 µM (inactive),–,17.6 µM (inactive),19.5 µM (inactive),17.2 µM (inactive),15.3 µM (inactive),15.7 µM (inactive),18.2 µM (inactive),18.9 µM (inactive),22.4 µM (inactive),11.3 µM (inactive),15.7 µM (inactive),14.2 µM (inactive),17.8 µM (inactive)
CC(C)(C)OC(=O)N1C(OP(=O)(Oc2ccccc2)Oc2ccccc2)=CSc2ccccc21,31.3 µM (inactive),80.2 µM (inactive),32.9 µM (inactive),–,50.2 µM (inactive),46.9 µM (inactive),–,29.1 µM (inactive),59 µM (inactive),43.2 µM (inactive),38.3 µM (inactive),31.6 µM (inactive),47.2 µM (inactive),35 µM (inactive),20.1 µM (inactive),17.8 µM (inactive),19.1 µM (inactive),27.4 µM (inactive),48.4 µM (inactive)
CC(NNC(=O)CC(=O)N(C(=O)c1ccccc1)c1ccc(Cl)cc1)c1cc2ccccc2oc1=O (configuration not stated),> 10 µM (inactive),> 10 µM (inactive),> 10 µM (inactive),–,> 10 µM (inactive),> 10 µM (inactive),–,> 10 µM (inactive),> 10 µM (inactive),> 10 µM (inactive),> 10 µM (inactive),> 10 µM (inactive),> 10 µM (inactive),> 10 µM (inactive),> 10 µM (inactive),> 10 µM (inactive),> 10 µM (inactive),> 10 µM (inactive),> 10 µM (inactive)
